Source: patent US8362066B2, “Compounds and methods for treating protein folding disorders” (Treventis Corporation, priority 2006, dated 2013)

Experiments:
Format in all cases: biochemical
Aβ1-40 [1] = target: T1, Aβ1-40 (Homo sapiens, UniProt P05067); assay: Tris-tricine SDS-PAGE, Aβ1-40 self-assembly following ThT aggregation assay; settings: FIG. 9
T1 construct: Both Aβ1-40 and Aβ1-42 were purchased from Anaspec; purchased Anaspec
Experimental: (§1) Pre-cast polyacrylamide gels were purchased from NuSep (10-20% Tris-tricine-SDS). These were chosen for their large separation range of 2.5 to 205 kDa. Molecular weight markers were purchased from Sigma Aldrich and diluted twenty fold for individual use. Three buffers were used for this technique: 1) Sample buffer (1.25 mL 0.5 M Tris-HCl (pH 6.8), 2.5 mL glycerol, 2.0 mL 10% SDS, 0.2 mL 0.5% bromophenol blue, 3.55 mL distilled water) which was used as the leading band in the gel. 2) Cathode Buffer (12.11 g tris base, 17.92 g tricine, 1 g SDS, diluted to 1 L with distilled water) which was the inner buffer in the tank assembly. 3) Anode Buffer (5× concentrated: 121.1 g tris base in 1 L of distilled water, pH 8.9 adjusted with concentrated HCl) which was the outer buffer and loaded at 1× concentration. Both Aβ1-40 and Aβ1-42 were purchased from Anaspec.
(§2) Five solutions were required to stain the gels using the silver stain protocol: 1) Fixer 1 (40% methanol, 10% acetic acid, diluted to 1 L with Millie-Q water) 2) Fixer 2 (45 g anhydrous sodium acetate, 300 mL methanol, 5 mL 25% glutaraldehyde, diluted to 1 L with Millie-Q water), 3) a) Silver stain A (15 mL of 25% ammonia solution, 0.8 g sodium hydroxide, diluted to 950 mL with Millie Q water). b) Silver stain B (6 g of silver nitrate in 50 mL Millie Q water). Solution B was then slowly added to solution A. 4) Developer (0.1 g citric acid, 1 mL formaldehyde, diluted to 1 L with Millie-Q water), 5) Stop solution (50 mL acetic acid, diluted to 1 L with Millie-Q water).
(§3) Following a ThT (Aβ1-40) or ThS (Tau 441) aggregation assay, described in Example 8 of US2007/0015813, samples were immediately aspirated and stored in centrifuge tubes. 10 μL of each sample was transferred to a microfuge tube and diluted 1:1 with sample buffer before being incubated (37° C.) for 30 minutes and loaded in the precast gels (15 μL in each well). The gel was then run at 100 V for approximately one hour or until the leading band reached the bottom of the gel.
(§4) Once the gel had finished running, it was removed from its plastic case and placed in a tray for staining. Approximately 200-250 mL volume was used for all the solutions. The gel was first washed with distilled water briefly to rinse off the excess buffer from the tank. It was then immersed in Fixer 1 for 30 minutes. followed by Fixer 2 for 30 minutes. Once the gel was fixed it then underwent three water washes at 10 minutes per wash. After the water washes, the gel was stained for 30 minutes using the silver stain solution. Excess stain was removed using three four-minute water washes. The gel was then immersed in the developer solution to visualize the stain. This took place for approximately 5 minutes or until the desired intensity was reached. To immediately stop the developing process the gel was placed in the stop solution for 10 minutes.

Aβ1-40 [2] = target: T1, Aβ1-40; assay: ThT fluorescence assay, inhibition of Aβ1-40 aggregation
Experimental: The compounds of the invention were evaluated for activity against Aβ aggregation in a kinetic thioflavin T (ThT) fluorescence assay similar to that of Chalifour, R. J., et al., J. Biol. Chem. (2003) 278: 34874-81. IC50 values for inhibition of Aβ1-40 aggregation in the ThT fluorescence assay for a number compounds of the present invention were determined. Values were calculated by solving the equation y=(m2)/(1+(x/m3)^m4) where y is percent aggregation, x is compound concentration, and m3 is the concentration giving 50% aggregation (i.e. IC50), using KaleidaGraph 4.0 (Synergy Software). Dye-binding ThT/ThS protein aggregation assays for Aβ, tau and α-synuclein were performed as described in Example 8 of US2007/0015813.

α-synuclein = α-synuclein (Homo sapiens, UniProt P37840); assay: ThT fluorescence assay, α-synuclein aggregation; settings: α-synuclein 4 μM, 96 hours, 37° C.
Experimental: (§5) The following procedures were used. The compounds were examined by circular dichroism (CD) to confirm their anti-amyloidogenic activity and were further evaluated for inhibition of both tau and α-synuclein aggregation in Thioflavin S (ThS) and ThT dye-binding fluorescence assays, respectively. The compounds were also evaluated in a MTT [3-(4,5-dimethylthiazol-2-yl)-2,5-diphenyltetrazolium bromide] cell viability assay (Kaneko, I., et al., J. Neurochem. (1995) 65: 2585-93). Pharmacokinetic (PK) testing was also performed. Compounds administered to mice (IP or PO dosing) had no toxicity at doses up to 300 mg/kg and were present in brain more than four hours after administration.
(§6) Dye-binding ThT/ThS protein aggregation assays for Aβ, tau and α-synuclein were performed as described in Example 8 of US2007/0015813.

Tau 441 [3] = target: T2, Tau 441 (Homo sapiens, UniProt P10636); assay: ThS fluorescence assay, Tau 441 aggregation; settings: Tau 441 6 μM; compound 50 μM and 10 μM; 24 hours, 37° C., FIG. 15
Experimental: as §5, §6

Tau 441 [4] = target: T2, Tau 441; assay: Tris-tricine SDS-PAGE, Tau 441 self-assembly following ThS aggregation assay; settings: FIG. 10
Experimental: as §1, §2, §3, §4

[5] = compound 50 μM and 10 μM, FIG. 17
[6] = compound 100 μM and 20 μM, FIG. 16

T2 sequence (P10636 1-441 isoform P10636-8): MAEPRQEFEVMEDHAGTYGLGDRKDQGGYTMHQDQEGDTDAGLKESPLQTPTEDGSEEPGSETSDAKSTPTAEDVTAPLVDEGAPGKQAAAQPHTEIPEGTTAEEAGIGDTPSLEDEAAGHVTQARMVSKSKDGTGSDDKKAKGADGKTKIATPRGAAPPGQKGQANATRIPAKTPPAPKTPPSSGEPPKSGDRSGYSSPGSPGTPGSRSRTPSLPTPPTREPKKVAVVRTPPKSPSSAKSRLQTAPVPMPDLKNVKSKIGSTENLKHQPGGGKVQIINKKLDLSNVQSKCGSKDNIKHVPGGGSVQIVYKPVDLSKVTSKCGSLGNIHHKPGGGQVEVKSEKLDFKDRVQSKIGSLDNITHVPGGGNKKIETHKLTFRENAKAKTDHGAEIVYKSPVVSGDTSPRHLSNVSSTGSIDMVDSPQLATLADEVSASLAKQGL
T1 sequence (P05067 672-711 limits assumed): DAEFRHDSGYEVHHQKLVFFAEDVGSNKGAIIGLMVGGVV

In the case of O=C(O)c1ccc2[nH]cc(-c3c[nH]c4ccc(O)cc34)c2c1 [QR-0142], the “effect on distribution of Aβ1-40 among states of assembly / monomer (SDS-PAGE)” value (“effect … of assembly / monomer (SDS-PAGE)” for short) (Aβ1-40 [1]) is reported as “increase in the concentration of Aβ1-40 monomer”.
O=C(O)c1ccc2c(c1)c(-c1ccc3cc(O)ccc3c1)cn2Cc1ccccc1 [QR-0162, 1-Benzyl-3-(6-hydroxynaphthalen-2-yl)-indole-5-carboxylic acid] was tested, and the IC50 (Aβ1-40 [2]) was 17.5 µM and the “inhibition of α-synuclein aggregation (ThT fluorescence)” value (“inhibition of α-synuclein aggregation” below) (α-synuclein; [5]) was “showed inhibition”.
In the case of Oc1cc2ccccc2c(-c2cc3ccccc3o2)c1O [QR-0164, 2-(2,3-Dihydroxynaphthalen-1-yl)-benzofuran], the IC50 (Aβ1-40 [2]) is reported as 3 µM and the “inhibition of α-synuclein aggregation” value (α-synuclein; [5]) is reported as “showed inhibition”.
In the case of COc1ccc2[nH]cc(-c3c[nH]c4ccc([N+](=O)[O-])cc34)c2c1 [QR-0171], the IC50 (Aβ1-40 [2]) is reported as 5.8 µM.
With O=C(O)c1ccc2[nH]cc(-c3c[nH]c4cccc(O)c34)c2c1 [QR-0176] the IC50 (Aβ1-40 [2]) was 1.99 µM and the “inhibition of α-synuclein aggregation” value (α-synuclein; [6]) was “showed inhibition”.
In the case of Oc1cc2ccccc2c(-c2c[nH]c3ccccc23)c1O [QR-0189], the IC50 (Aβ1-40 [2]) is reported as 19 µM and the “inhibition of α-synuclein aggregation” value (α-synuclein; [6]) is reported as “showed inhibition”.
For Oc1ccc2[nH]cc(-c3c(O)c(O)cc4ccccc34)c2c1 [QR-0212, 5-hydroxy-3-(2,3-dihydroxyynathalen-1-yl)-1H-indole], the IC50 (Aβ1-40 [2]) was 8.2 µM and the “inhibition of α-synuclein aggregation” value (α-synuclein; [6]) was “showed inhibition”.
In the case of COc1ccc2cc(-c3c[nH]c4ccc(C(=O)O)cc34)ccc2c1 [QR-0216], the IC50 (Aβ1-40 [2]) is reported as 35.5 µM.
In the case of Oc1ccc2cc(-c3c[nH]c4ccc(O)cc34)ccc2c1 [QR-0225, 5-Hydroxy-3-(2-hydroxynaphthalen-6-yl)-1H-indole], the IC50 (Aβ1-40 [2]) is reported as 7 µM.
With Oc1ccc2cc(-c3ccc4c(c3)OCCO4)ccc2c1 [QR-0229, 6-(2,3-Dihydrobenzo[b][1,4]dioxin-7-yl)naphthalene-2-ol] the IC50 (Aβ1-40 [2]) was 18.9 µM.
Oc1cc2ccccc2c(-c2ccc3c(c2)OCCO3)c1O [QR-0231, 1-(2,3-Dihydrobenzo[b][1,4]dioxin-7-yl)-2,3-dihydroxynaphthalene] showed an IC50 (Aβ1-40 [2]) of 27.8 µM.
In the case of COc1ccc2[nH]cc(-c3c[nH]c4ccc(C#N)cc34)c2c1 [QR-0238], the IC50 (Aβ1-40 [2]) is reported as 20.9 µM.
Work on N#Cc1ccc2[nH]cc(-c3c[nH]c4ccc(Br)cc34)c2c1 [QR-0240] yielded an IC50 (Aβ1-40 [2]) of 12 µM.
In the case of O=C(O)c1cc2cc(-c3cc4ccccc4o3)ccc2c(Br)c1O [QR-0244, 7-(Benzofuran-2-y)-4-bromo-3-hydroxynaphthalene-2-carboxylic acid], the IC50 (Aβ1-40 [2]) is reported as 5.6 µM, the “inhibition of Tau 441 aggregation (ThS fluorescence)” value (Tau 441 [3]) is reported as “greatly inhibited” and the “Tau 441 dimer and trimer bands (SDS-PAGE)” value (Tau 441 [4]) is reported as “appearance of dimer and trimer bands”. For the same compound, the “effect on Tau 441 self-assembly, monomer fragmentation (SDS-PAGE)” value (Tau 441 [4]; relative to control) was “decreased fragmentation of tau 441 monomer”.
O=C(O)c1ccc2c(-c3c[nH]c4ccc(O)cc34)c[nH]c2c1 [QR-0253] was tested, and the IC50 (Aβ1-40 [2]) was 11.8 µM.
In the case of O=C(O)c1cccc2c(-c3cc4ccccc4o3)c[nH]c12 [QR-0256], the IC50 (Aβ1-40 [2]) is reported as 17.1 µM.
O=C(O)c1cccc2c(-c3ccc4cc(O)ccc4c3)c[nH]c12 [QR-0258, 3-(2-Hydroxynaphthalen-6-yl)-1H-indole-7-carboxylic acid] was tested, and the IC50 (Aβ1-40 [2]) was 10 µM.
For O=C(O)c1cccc2c(-c3cc4ccccc4s3)c[nH]c12 [QR-0261], the IC50 (Aβ1-40 [2]) was 10.3 µM.
Work on Oc1ccc2[nH]cc(CN3CCc4ccccc4C3)c2c1 [QR-0269] yielded an IC50 (Aβ1-40 [2]) greater than 200 µM.
For N#Cc1ccc2[nH]cc(-c3c[nH]c4ccc(O)cc34)c2c1 [QR-0276], the “effect … of assembly / monomer (SDS-PAGE)” value (Aβ1-40 [1]) was “little effect” and the IC50 (Aβ1-40 [2]) was 16.5 µM.
In the case of COc1c(C(=O)O)cc2cc(-c3ccc4c(c3)OCCO4)ccc2c1Br [QR-0282, 4-Bromo-7-(2,3-dihydrobenzo[b][1,4]dioxin-7-yl)-3-methoxynaphthalene-2-carboxylic acid], the “Aβ1-40 dimer band (SDS-PAGE)” value (Aβ1-40 [1]) is reported as “appearance of a dimer band” and the “effect … of assembly / monomer (SDS-PAGE)” value (Aβ1-40 [1]) is reported as “increase in the concentration of Aβ1-40 monomer”.
O=C(O)c1cccc2c(-c3cc4ccccc4o3)cn(Cc3ccccc3)c12 [QR-0284, 3-Benzofuran-2-yl-1-benzyl-1H-indole-7-carboxylic acid] showed an IC50 (Aβ1-40 [2]) greater than 50 µM.
With O=C(O)c1cccc2c(-c3cc4ccccc4s3)cn(Cc3ccccc3)c12 [QR-0287, 3-(Benzo[b]thiophen-2-yl)-1-benzyl-1H-indole-7-carboxylic acid] the IC50 (Aβ1-40 [2]) was 19.5 µM.
COc1ccc(Nc2ccc(Nc3ccc(OC)cc3)cc2)cc1 [QR-0292] was tested, and the IC50 (Aβ1-40 [2]) was 0.54 µM.
Oc1ccc2cc(-c3cc4ccccc4o3)ccc2c1Br [QR-0297, 6-(Benzofuran-2-yl)-1-bromonaphthalen-2-ol] was tested, and the IC50 (Aβ1-40 [2]) was 0.57 µM.
Work on Nc1ccc2[nH]cc(-c3c[nH]c4ccc(Br)cc34)c2c1 [QR-0300] yielded an IC50 (Aβ1-40 [2]) of 1.7 µM.
Work on Nc1ccc2[nH]cc(-c3c4ccccc4cc4c3[nH]c3ccc(N)cc34)c2c1 [QR-0302] yielded an IC50 (Aβ1-40 [2]) of 3.2 µM.
O=C(O)c1cccc2c(-c3c[nH]c4ccc(Br)cc34)c[nH]c12 [QR-0303] was tested, and the IC50 (Aβ1-40 [2]) was 21 µM.
N#Cc1ccc2[nH]cc(-c3ccc4cc(O)ccc4c3)c2c1 [QR-0313] gave an IC50 (Aβ1-40 [2]) of 6.5 µM.
COc1cccc(Nc2cccc(Nc3cccc(OC)c3)c2)c1 [QR-0315] was tested, and the IC50 (Aβ1-40 [2]) was 5.7 µM.
With COc1ccccc1Nc1cccc(Nc2ccccc2OC)c1 [QR-0316] the IC50 (Aβ1-40 [2]) was greater than 50 µM.
Oc1ccc(Nc2cccc(Nc3ccc(O)cc3)c2)cc1 [QR-0319] gave an IC50 (Aβ1-40 [2]) of 2.4 µM.
Work on N#Cc1ccc2[nH]cc(-c3c(O)c(O)cc4ccccc34)c2c1 [QR-0321] yielded an IC50 (Aβ1-40 [2]) of 9.4 µM.
With Oc1ccc(Nc2cccc(Nc3ccc(O)cc3)c2)cc1 [QR-0325] the IC50 (Aβ1-40 [2]) was 1.03 µM.
Oc1cccc(Nc2cccc(Nc3cccc(O)c3)c2)c1 [QR-0326] gave an IC50 (Aβ1-40 [2]) of 3.3 µM.
O=C(O)c1ccc2c(-c3c[nH]c4ccc([N+](=O)[O-])cc34)c[nH]c2c1 [QR-0327] showed an IC50 (Aβ1-40 [2]) of 11.5 µM.
With Oc1ccc(C=Cc2cc(O)cc(O)c2)cc1 [resveratrol, reference compound] the “inhibition of α-synuclein aggregation” value (α-synuclein; [6]) was “showed inhibition”.
